Source: PMC4488857 (PLoS ONE, 2015)
Blank lines part the entries; values can stand above or below the molecule they belong to.

How the values were obtained:
[1] = target: T1, multidrug resistance-associated protein 2 (MRP2) (Homo sapiens, UniProt Q92887); experiment: inhibition of ATP-dependent platinum uptake (oxaliplatin […]) in MRP2-expressing membrane vesicles, ICPMS; […] reduction at […]; format: cell-based; set-up: gene ABCC2; human MRP2 in inside-out Sf9 membrane vesicles
[2] = target: T1, multidrug resistance-associated protein 2 (MRP2); set-up: gene ABCC2
[3] = target: T1, multidrug resistance-associated protein 2 (MRP2); experiment: inhibition of ATP-dependent platinum uptake (oxaliplatin […]) in MRP2-expressing membrane vesicles, ICPMS; format: biochemical; set-up: gene ABCC2; human MRP2 in inside-out Sf9 membrane vesicles

T1 sequence (Q92887 whole entry): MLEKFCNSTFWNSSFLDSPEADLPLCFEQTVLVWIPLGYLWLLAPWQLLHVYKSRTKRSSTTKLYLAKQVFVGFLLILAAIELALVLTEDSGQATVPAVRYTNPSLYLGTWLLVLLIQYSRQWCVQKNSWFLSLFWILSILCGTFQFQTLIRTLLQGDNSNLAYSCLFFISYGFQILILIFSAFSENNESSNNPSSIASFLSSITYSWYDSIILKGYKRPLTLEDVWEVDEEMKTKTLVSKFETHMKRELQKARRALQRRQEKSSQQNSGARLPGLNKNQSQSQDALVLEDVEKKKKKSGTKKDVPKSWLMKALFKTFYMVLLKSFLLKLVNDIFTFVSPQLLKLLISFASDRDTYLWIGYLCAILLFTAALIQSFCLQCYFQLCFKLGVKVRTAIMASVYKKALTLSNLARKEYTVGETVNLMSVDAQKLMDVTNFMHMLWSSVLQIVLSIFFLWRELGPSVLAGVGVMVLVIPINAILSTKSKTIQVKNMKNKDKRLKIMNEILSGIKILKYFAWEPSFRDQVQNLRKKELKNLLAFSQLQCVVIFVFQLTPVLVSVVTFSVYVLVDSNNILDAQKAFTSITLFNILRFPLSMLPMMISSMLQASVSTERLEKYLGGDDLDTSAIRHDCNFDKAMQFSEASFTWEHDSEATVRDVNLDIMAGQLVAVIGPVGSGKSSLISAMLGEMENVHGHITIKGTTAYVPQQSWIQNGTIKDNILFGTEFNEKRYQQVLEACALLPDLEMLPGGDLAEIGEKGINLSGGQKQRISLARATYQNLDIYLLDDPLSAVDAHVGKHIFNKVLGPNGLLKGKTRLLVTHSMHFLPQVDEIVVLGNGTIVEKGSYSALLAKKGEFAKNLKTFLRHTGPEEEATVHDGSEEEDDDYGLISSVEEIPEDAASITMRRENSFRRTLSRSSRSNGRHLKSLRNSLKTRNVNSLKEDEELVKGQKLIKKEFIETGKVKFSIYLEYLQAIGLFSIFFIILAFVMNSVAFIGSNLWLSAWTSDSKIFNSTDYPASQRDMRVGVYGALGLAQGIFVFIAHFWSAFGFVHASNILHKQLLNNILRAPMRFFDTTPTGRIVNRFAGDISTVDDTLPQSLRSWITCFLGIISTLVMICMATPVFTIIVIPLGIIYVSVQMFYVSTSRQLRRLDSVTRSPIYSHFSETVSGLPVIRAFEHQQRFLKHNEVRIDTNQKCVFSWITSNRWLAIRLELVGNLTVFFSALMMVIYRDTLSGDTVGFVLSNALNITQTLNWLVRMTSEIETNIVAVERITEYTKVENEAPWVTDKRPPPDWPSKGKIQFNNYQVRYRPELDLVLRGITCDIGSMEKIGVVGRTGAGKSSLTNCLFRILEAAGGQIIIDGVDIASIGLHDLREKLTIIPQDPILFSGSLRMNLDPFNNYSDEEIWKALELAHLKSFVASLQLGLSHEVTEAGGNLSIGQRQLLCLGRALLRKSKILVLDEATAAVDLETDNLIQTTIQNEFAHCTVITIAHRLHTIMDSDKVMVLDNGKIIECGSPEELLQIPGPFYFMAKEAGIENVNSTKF

inhibition at 100 µM [1]: 96%
Compound: CN(C)C(=O)CCSC(SCCC(=O)O)c1cccc(/C=C/c2ccc3ccc(Cl)cc3n2)c1 (stereo not drawn) [MK571]

Compound: O=C1[O][Pt]2([NH][C@@H]3CCCC[C@H]3[NH]2)[O]C1=O [oxaliplatin]
Km [2]: 301 µM

Compound: O=c1c(O)c(-c2cc(O)c(O)c(O)c2)oc2cc(O)cc(O)c12 [myricetin]
IC50 [3]: 10 to 100 µM
